Experimental data reported in patent US6613762B2, “Gambogic acid, analogs and derivatives as activators of caspases and inducers of apoptosis” (Cytovia, Inc., priority 1999, dated 2003).
Read-outs that look alike come from different tables or passages of the source.

Tests used:
[1] = tested on: caspase cascade, T-47D cells; assay: Known antineoplastic compounds as caspase cascade activators (Example 92), T-47D; format: cell-based, human; conditions: 10 μM final, 24 h; ratio of net RFU to control; ratio around 1 = not an efficient activator
Method: (§8) An aliquot of 45 μl of cells was added to a well of a 96-well microtiter plate containing 5 μl of a 10% DMSO in RPMI-1640 media solution containing 100 μM of test compounds (10 μM final). An aliquot of 45 μl of cells was added to a well of a 96-well microtiter plate containing 5 μl of a 10% DMSO in RPMI-1640 media solution without test compound as the control sample. The samples were mixed by agitation and then incubated at 37° C. for 24 h in a 5% CO2-95% humidity incubator. After incubation, the samples were removed from the incubator and 50 μl of a solution containing 20 μM of N-(Ac-DEVD)-N′-ethoxycarbonyl-R110 fluorogenic substrate (SEQ ID NO:1) (Cytovia, Inc.), 20% sucrose (Sigma), 20 mM DTT (Sigma), 200 mM NaCl (Sigma), 40 mM Na PIPES buffer pH 7.2 (Sigma), and 500 μg/ml lysolecithin (Calbiochem) was added. The samples were mixed by agitation and incubated for 3 h at room temperature. Using a fluorescent plate reader (Model 1420 Wallac Instruments), an initial reading (T=0) was made approximately 1-2 min. after addition of the substrate solution, employing excitation at 485 nm and emission at 530 nm, to determine the background fluorescence of the control sample. After the 3 h incubation, the samples were read for fluorescence as above (T=3 h).
(§9) The Relative Fluorescence Unit values (RFU) were used to calculate the sample readings as follows:
(§10) The activity in caspase cascade activation was determined by the ratio of the net RFU value for test compounds to that of control samples.

[2] = tested on: caspase cascade, PC-3 cells; assay: Known antineoplastic compounds as caspase cascade activators (Example 92), PC-3; format: cell-based, human; conditions: 10 μM final, 24 h; ratio of net RFU to control; ratio around 1 = not an efficient activator
Method: as §8, §9, §10

[3] = tested on: caspase cascade, human breast cancer cell line T-47D; assay: Caspase cascade activation assay (Example 90), T-47D; format: cell-based; conditions: 24 h incubation; for EC50: Homo sapiens, T47D, sigmoidal dose-response, read-out: T-47D EC50 (caspase activation potency)
Method: (§1) Human breast cancer cell lines T-47D and ZR-75-1, human prostate cancer cell line PC-3, human leukemia cancer cell line HL-60 and human non-transformed fibroblast cell line MRC-5 cells were grown according to media component mixtures designated by The American Type Culture Collection+10% FCS (Life Technologies, Inc.), in a 5% CO2-95% humidity incubator at 37° C. T-47D, ZR-75-1 and PC-3 cells were maintained at a cell density between 30 and 80% confluency and for HL-60 at a cell density of 0.1 to 0.6×10^6 cells/m. Cells were harvested at 600× g and resuspended at 0.65×10^6 cells/ml into appropriate media +10% FCS. […] The samples were mixed by agitation and incubated at room temperature.
(§2) The EC50 (nM) was determined by a sigmoidal dose-response calculation (Prism 2.0, GraphPad Software Inc.).

[4] = tested on: caspase cascade, human breast cancer cell line ZR-75-1; assay: Caspase cascade activation assay (Example 90), ZR-75-1; format: cell-based; conditions: Homo sapiens, ZR-75-1; 24 h incubation; sigmoidal dose-response; read-out: ZR-75-1 EC50 (caspase activation potency)
Method: as §1, §2

[5] = tested on: caspase cascade, human prostate cancer cell line PC-3; assay: Caspase cascade activation assay (Example 90), PC-3; format: cell-based; conditions: 24 h incubation; for EC50: Homo sapiens, sigmoidal dose-response, read-out: PC-3 EC50 (caspase activation potency)
Method: as §1, §2

[6] = tested on: caspase cascade, human leukemia cancer cell line HL-60; assay: Caspase cascade activation assay (Example 90), HL-60; format: cell-based; conditions: Homo sapiens, HL-60; 24 h incubation; sigmoidal dose-response; read-out: HL-60 EC50 (caspase activation potency)
Method: as §1, §2

caspase cascade = assay: Caspase cascade activation assay (Example 90), MRC-5; format: cell-based, human; conditions: human
Method: as §1, §2

T-47D cells = assay: Inhibition of cell proliferation (GI50) and cell death (LC50), T-47D; format: cell-based; conditions: Homo sapiens, T47D, 48 h; for CC50: read-out: LC50 (dose for 50% cell death); for GI50: read-out: GI50 (dose for 50% inhibition of cell proliferation)
Method: (§3) T47D, ZR-75-1, PC-3, human prostate cancer cell line DU-145, human non-small cell lung cancer cell line A-549, human small cell lung cancer cell line SHP-77, HL-60 and MRC-5 cells were grown and harvested as in Example 90. […] The samples were mixed by agitation and incubated at 37° C. for 2-4 h in a 5% CO2-95% humidity incubator. […] This determines the possible background absorbance of the test compounds. No absorbance for gambogic acid or its analogs or derivatives was found at 490 nm. After the 2-4 h incubation, the samples were read for absorbance as above (ATest).
(§4) Baseline for GI50 (dose for 50% inhibition of cell proliferation) and LC50 (dose for 50% cell death) of initial cell numbers was determined by adding an aliquot of 90 μl of cells or 90 μl of media, respectively, to wells of a 96-well microtiter plate containing 10 μl of a 10% DMSO in RPMI-1640 media solution. […] The samples were mixed by agitation and incubated at 37° C. for 2-4 h in a 5% CO2-95% humidity incubator. Absorbance was read as above, (AT=0) defining absorbance for initial cell number used as baseline in GI50 determinations and (Amin) defining absorbance for media alone used as baseline in LC50 determinations.
(§5) GI50 (dose for 50% inhibition of cell proliferation)
(§6) LC50 (dose for 50% cell death)
(§7) 50=100×[(ATest−Amin)/(AT=0−Amin)]

ZR-75-1 cells = assay: Inhibition of cell proliferation (GI50) and cell death (LC50), ZR-75-1; format: cell-based; conditions: Homo sapiens, ZR-75-1, 48 h
Method: as §3, §4, §5, §6, §7

PC-3 cells = assay: Inhibition of cell proliferation (GI50) and cell death (LC50), PC-3; format: cell-based
Method: as §3, §4, §5, §6, §7

[7] = tested on: human prostate cancer cell line DU-145; assay: Inhibition of cell proliferation (GI50) and cell death (LC50), DU-145; format: cell-based
Method: as §3, §4, §5, §6, §7

[8] = tested on: human non-small cell lung cancer cell line A-549; assay: Inhibition of cell proliferation (GI50) and cell death (LC50), A-549; format: cell-based; conditions: Homo sapiens
Method: as §3, §4, §5, §6, §7

[9] = tested on: human small cell lung cancer cell line SHP-77; assay: Inhibition of cell proliferation (GI50) and cell death (LC50), SHP-77; format: cell-based; conditions: Homo sapiens
Method: as §3, §4, §5, §6, §7

HL-60 cells = assay: Inhibition of cell proliferation (GI50) and cell death (LC50), HL-60; format: cell-based; conditions: Homo sapiens, HL-60, 48 h
Method: as §3, §4, §5, §6, §7

[10] = Inhibition of cell proliferation (GI50) and cell death (LC50), MRC-5; format: cell-based; conditions: human
Method: as §3, §4, §5, §6, §7

MRC-5 cells = assay: as above; format: cell-based; conditions: Homo sapiens, MRC5; MRC-5, 48 h; read-out: GI50 (dose for 50% inhibition of cell proliferation)
Method: as §3, §4, §5, §6, §7

[11] = read-out: LC50 (dose for 50% cell death)
[12] = read-out: GI50 (dose for 50% inhibition of cell proliferation)
[13] = Homo sapiens, PC-3, 48 h, read-out: LC50 (dose for 50% cell death)
[14] = Homo sapiens, PC-3, 48 h; read-out: GI50 (dose for 50% inhibition of cell proliferation)
[15] = Homo sapiens, DU-145, 48 h, read-out: LC50 (dose for 50% cell death)
[16] = Homo sapiens, DU-145, 48 h; read-out: GI50 (dose for 50% inhibition of cell proliferation)
[17] = ratio of net RFU of test compound to control, 0.16 to 10 μM

Question: With `COc1cc([C@@H]2c3cc4c(cc3[C@@H](O[C@@H]3O[C@@H]5CO[C@@H](C)O[C@H]5[C@H](O)[C@H]3O)[C@H]3COC(=O)[C@H]23)OCO4)cc(OC)c1O` [Etoposide] as the compound, how does the “Caspase cascade activation ratio, T-47D” value [1] read?
Answer: 1.0

Question: What about the “Caspase cascade activation ratio, PC-3” value [2] of the same compound?
Answer: 0.8

Question: For `CC(C)=CCCC1(C)C=Cc2c(O)c3c(c(CC=C(C)C)c2O1)OC12C(=CC4CC1C(C)(C)OC2(C/C=C(/C)C(=O)N1CCCCC1)C4=O)C3=O` (stereo not shown) [Example 5, Gambogyl Piperidine], which EC50 [3] is on record?
Answer: 210 nM

Question: And the EC50 [4]?
Answer: 783 nM

Question: What about the EC50 [5] of the same compound?
Answer: 900 nM

Question: What about the EC50 [6] of the same compound?
Answer: 200 nM

Question: And the EC50 at 24 h (caspase cascade)?
Answer: 631 nM

Question: What about the CC50 (T-47D cells) of the same compound?
Answer: 50 nM

Question: And the GI50 (T-47D cells; T-47D)?
Answer: 50 nM

Question: What about the CC50 (ZR-75-1 cells; [11]) of the same compound?
Answer: 500 nM

Question: And the GI50 (ZR-75-1 cells; [12])?
Answer: 300 nM

Question: What about the CC50 (PC-3 cells; [13]) of the same compound?
Answer: 500 nM

Question: What about the GI50 (PC-3 cells; [14]) of the same compound?
Answer: 500 nM

Question: What about the CC50 [7, 15] of the same compound?
Answer: 500 nM

Question: What about the GI50 [7, 16] of the same compound?
Answer: 500 nM

Question: And the CC50 ([8]; A549, 48 h, read-out: LC50 (dose for 50% cell death))?
Answer: 5000 nM

Question: And the GI50 ([8]; A549, A-549, 48 h, read-out: GI50 (dose for 50% inhibition of cell proliferation))?
Answer: 800 nM

Question: What about the CC50 ([9]; SHP77, 48 h, read-out: LC50 (dose for 50% cell death)) of the same compound?
Answer: 500 nM

Question: And the GI50 ([9]; SHP77, SHP-77, 48 h, read-out: GI50 (dose for 50% inhibition of cell proliferation))?
Answer: 500 nM

Question: What about the CC50 (HL-60 cells; [11]) of the same compound?
Answer: 800 nM

Question: What about the GI50 (HL-60 cells; [12]) of the same compound?
Answer: 100 nM

Question: What about the CC50 at 48 h [10] of the same compound?
Answer: 800 nM

Question: What about the GI50 (MRC-5 cells) of the same compound?
Answer: 800 nM

Question: Which “T-47D Ratio (caspase activity)” value [3, 17] does the source give for `CC(C)=CCC/C(C)=C/Cc1c(O)c(CC=C(C)C)c2c(c1O)C(=O)C1=CC3CC4C(C)(C)OC(C/C=C(/C)C=O)(C3=O)C14O2` (stereo not shown) [Example 3, Gambogenin] here?
Answer: 7.0

Question: And the “PC-3 Ratio (caspase activity)” value [5, 17]?
Answer: 2.9

Question: What about the CC50 (T-47D cells) of the same compound?
Answer: 500 nM

Question: What about the GI50 (T-47D cells; T-47D) of the same compound?
Answer: 500 nM

Question: And the CC50 (PC-3 cells; [13])?
Answer: 5000 nM

Question: What about the GI50 (PC-3 cells; [14]) of the same compound?
Answer: 5000 nM

Question: And the CC50 [7, 15]?
Answer: 5000 nM

Question: And the GI50 [7, 16]?
Answer: 2000 nM

Question: And the CC50 at 48 h [10]?
Answer: 5000 nM

Question: What about the GI50 (MRC-5 cells) of the same compound?
Answer: 3000 nM

Question: With `COc1cccc2c1C(=O)c1c(O)c3c(c(O)c1C2=O)C[C@@](O)(C(=O)CO)C[C@@H]3O[C@H]1C[C@H](N)[C@H](O)[C@H](C)O1` [Doxorubicin] as the compound, how does the “Caspase cascade activation ratio, T-47D” value [1] read?
Answer: 1.3

Question: And the “Caspase cascade activation ratio, PC-3” value [2]?
Answer: 1.1

Question: Which results are given for `O=c1[nH]cc(F)c(=O)[nH]1` [5-fluorouracil]?
Answer: Caspase cascade activation ratio, T-47D [1]: 0.8; Caspase cascade activation ratio, PC-3 [2]: 0.7

Question: For `CC(C)=CCC/C(C)=C/Cc1c(O)c(CC=C(C)C)c2c(c1O)C(=O)C1=CC3CC4C(C)(C)OC(C/C=C(/C)C(=O)O)(C3=O)C14O2` (stereo not shown) [Example 2, Gambogenic Acid], which EC50 [3] is on record?
Answer: 310 nM

Question: And the EC50 [4]?
Answer: 1160 nM

Question: What about the EC50 [5] of the same compound?
Answer: 1350 nM

Question: And the EC50 [6]?
Answer: 340 nM

Question: What about the EC50 (caspase cascade; 24 h incubation, sigmoidal dose-response, read-out: MRC-5 EC50 (caspase activation potency)) of the same compound?
Answer: 1260 nM

Question: And the GI50 (T-47D cells; T-47D)?
Answer: 500 nM

Question: And the CC50 (T-47D cells; T-47D)?
Answer: 500 nM

Question: And the GI50 (PC-3 cells; [14])?
Answer: 3000 nM

Question: What about the CC50 (PC-3 cells; Homo sapiens, PC-3, 48 h; read-out: LC50 (dose for 50% cell death)) of the same compound?
Answer: 5000 nM

Question: And the GI50 [7, 16]?
Answer: 600 nM

Question: What about the CC50 ([7]; Homo sapiens, DU-145, 48 h; read-out: LC50 (dose for 50% cell death)) of the same compound?
Answer: 5000 nM

Question: What about the CC50 ([10]; MRC-5, 48 h, read-out: LC50 (dose for 50% cell death)) of the same compound?
Answer: 5000 nM

Question: What about the GI50 (MRC-5 cells) of the same compound?
Answer: 500 nM

Question: What does the source list for `CN(Cc1cnc2nc(N)nc(N)c2n1)c1ccc(C(=O)N[C@@H](CCC(=O)O)C(=O)O)cc1` [Methotrexate]?
Answer: Caspase cascade activation ratio, T-47D [1]: 0.8; Caspase cascade activation ratio, PC-3 [2]: 0.7
